Where two headings read alike, the source gives them in different places.
Key:
[1] = cited from earlier work

SMILES	cytoprotective effect of resin composition (human cells)	logD ([1]; pH 7.4)	logD ([1]; pH 5.5)
O=C(O)Cc1ccccc1Nc1c(Cl)cccc1Cl [diclofenac]	cytoprotective effect has been shown	–	–
Cc1nnc2n1-c1ccc(Cl)cc1C(c1ccccc1)=NC2 [alprazolam]	cytoprotective effect has been shown	–	–
CN1CCCC1c1cccnc1 (stereo not shown) [nicotine]	cytoprotective effect has been shown	−0.62	–
CCCc1nc(C)c2c(=O)[nH]c(-c3cc(S(=O)(=O)N4CCN(CC)CC4)ccc3OCC)nn12 [vardenafil]	–	3.71	2.26
CC(C)Cc1ccc(C(C)C(=O)O)cc1 (stereo not shown) [ibuprofen]	cytoprotective effect has been shown	–	–
CC[C@H]1OC(=O)[C@H](C)[C@@H](O[C@H]2C[C@@](C)(OC)[C@@H](O)[C@H](C)O2)[C@H](C)[C@@H](O[C@@H]2O[C@H](C)C[C@H](N(C)C)[C@H]2O)[C@](C)(O)C[C@@H](C)C(=O)[C@H](C)[C@@H](O)[C@]1(C)O [erythromycin]	cytoprotective effect has been shown	–	–
CNS(=O)(=O)CCc1ccc2[nH]cc(C3CCN(C)CC3)c2c1 [naratriptan]	–	−0.85	–
Cc1nccn1CC1CCc2c(c3ccccc3n2C)C1=O (stereo not shown) [ondansetron]	cytoprotective effect has been shown	1.2	–
CCCc1nn(C)c2c(=O)[nH]c(-c3cc(S(=O)(=O)N4CCN(C)CC4)ccc3OCC)nc12 [sildenafil]	–	2.26	1.83

From patent US20140371210A1, “METHODS AND COMPOSITIONS FOR RAPID TRANSBUCCAL DELIVERY OF ACTIVE AGENTS” (Jaleva Pharmaceuticals, LLC, priority 2011, published 2014)
